# From patent publication US20160310524A1, “COMPOSITIONS AND METHODS FOR TREATING DYSREGULATED SYSTEMS” (priority 2013, published 2016)
# What was measured:
# Type in all cases: in vivo
# [1] = test system: seizure patient with rage behavior; assay: Case number 2: seizure patient with rage behavior
# Method: The patient had been on a large dose thioridazine (400 mg/day).
# One drives fear and involves beta-receptors. The other drives aggression and involves alpha-receptors.
# [2] = test system: patients where involvement with glutamate is suspected; assay: Low dose (Trojan horse) treatment of patients where involvement with glutamate is suspected
# Source text: For example one of the stimulating systems in the body is the glutamate receptor mechanism. Some of the biggest challenges in neuropsychiatric pharmacology is breaking through the defenses of these “buffered” systems like NMDA. The “Trojan horses” can enter into the receptor mechanism and change it without disturbing the situation. This explains why certain diseases that are not well treated, such as autism, have responded to any number of treatments but none of them consistently. If the balance between more autistic and less autistic behavior is very much leaning toward improved socialization, then perhaps any “Trojan horse” that can slip past the “fortress” of the glutamate receptors that are refusing to participate may add enough positive to affect socialization and the child has a miraculous response to the minute dose of medicine.
# Examples: low dose Abilify and mecamylamine have been successful in treating patients where involvement with glutamate is suspected. Indeed we have few disorders that are known to be caused by glutamate despite the large role it plays in brain function. One medication that has been used for several years is Mematine, which is supposed to help memory in patients with Alzheimer's. […] Another example is the destructive flashbacks seen when individuals have taken PCP. […]
# [3] = test system: subject with dissociation disorder; assay: Example protocol for memantine (Namenda) in dissociation disorder: sample chart for an example patient
# Method: Example Protocol for Memantine (Namenda®)
# Day 1: Give Namenda ½ of a 5 mg tablet in the morning.
# Day 2: If the patient has absolutely no positive change in their behavior in the form of genuine social interactions, give another ½ of a 5 mg tablet in the morning.
# Day 3: No matter what happened, give no Namenda on Day 3.
# If there has been no improvement, give ½ of a 5 mg tablet in the morning.
# Day 5: If there has been no improvement since Day 1, give ½ of a 5 mg tablet in the morning.
# Day 6: No matter what happens, give no Namenda on Day 6.
# Day 7: If there has been only minimal improvement after a total of 7.5 mg of Namenda, give ½ of a 5 mg Namenda. If there has been no improvement after a total of 10 mg of Namenda, give ½ of a 5 mg Namenda. Otherwise, give no Namenda on Day 7. […]
# Here is a sample chart for an example patient following the steps and a plan for week 2. […]
# Side effects of Namenda: how to know if the dose is too high. The negative social effects of Namenda can be described as disinhibitory. This mean that the person's normal understanding of personal boundaries with others is lost—i.e., the patient loses their inhibition like someone who is intoxicated. They may be excessively aggressive both verbally and physically about incidental matters. They may become intrusive into other people's business. They may become flirtatious or aggressive. If a person has any of these behaviors it most likely means that the Namenda dose is getting too high.
# [4] = Effect of memantine on socialization in people; conditions: in many people
# [5] = test system: schizophrenic acute psychosis patients and patients having autism spectrum social disorder; assay: Mecamylamine in patients with schizophrenic acute psychosis or autism spectrum social disorder: verbal communication
# Method: In some embodiments, the effective dose of mecamylamine is 0.025 mg/kg to about 0.125 mg/kg twice a week. In some cases, the effective dose of mecamylamine in schizophrenic acute psychosis patients and patients having autism spectrum social disorder results in improved verbal communication from 50 to 150%. In some embodiments, one dose may have an effect of improved verbal communication up to two months.
# [6] = Day 1, dose given ½ of a 5 mg Namenda
# [7] = Day 2, dose given ½ of a 5 mg Namenda
# [8] = Day 5, dose given ½ of a 5 mg Namenda
smiles,measurement,setting,value
CC(C)NCC(O)COc1cccc2ccccc12 (stereo not drawn) [propranolol],character of rage when it occurred,"[1]; on propranolol, compared with before beta blocker treatment",wilder and more psychotic
same,frequency of rages,[1]; on the beta blocker propranolol,less frequent rages
COc1cc2nc(N3CCN(C(=O)C4COc5ccccc5O4)CC3)nc(N)c2cc1OC (stereo not drawn) [doxazosin],effect on severe psychotic symptoms,"[1]; doxazosin added, patient on propranolol and haloperidol",stopped the severe psychotic symptoms
"O=C1CCc2ccc(OCCCCN3CCN(c4cccc(Cl)c4Cl)CC3)cc2N1 [Abilify, aripiprazole]",success of treatment,[2],successful
"CC12CC3CC(C)(C1)CC(N)(C3)C2 [Namenda, memantine]",Improvement,[3]; [6],None
same,Side Effects or Disinhibition,[3]; [6],None
same,Improvement,[3]; [7],None
same,Side Effects or Disinhibition,[3]; [7],None
same,Degree or Detail of Improvement,"[3]; Day 3, no dose given",Spoke normally
same,Improvement,"[3]; Day 3, no dose given",Slight
same,Side Effects or Disinhibition,"[3]; Day 3, no dose given",None
same,Degree or Detail of Improvement,"[3]; Day 4, no dose given",Same as Day 3
same,Improvement,"[3]; Day 4, no dose given",Slight
same,Side Effects or Disinhibition,"[3]; Day 4, no dose given",None
same,Degree or Detail of Improvement,[3]; [8],Ate their meal
same,Improvement,[3]; [8],Good
same,Side Effects or Disinhibition,[3]; [8],None
same,Degree or Detail of Improvement,"[3]; Day 6, no dose given",Same as Day 4
same,Improvement,"[3]; Day 6, no dose given",Continues Good
same,Side Effects or Disinhibition,"[3]; Day 6, no dose given",None
same,Improvement,"[3]; Day 7, no dose given",Same
same,Side Effects or Disinhibition,"[3]; Day 7, no dose given",None
same,effect on socialization,[4],increase their socialization
same,effect on socialization,[4]; listed as Mematine,increasing their socialization
CNC1(C)C2CCC(C2)C1(C)C (stereo not drawn) [mecamylamine],duration of effect of improved verbal communication,[5]; one dose,up to two
same,duration of effect of improved verbal communication,[5]; one weekly protocol,up to 4 months
same,success of treatment,[2],successful
